Drawing on the Kinase Knowledgebase extract (Sharma et al. 2016), this text covers IC50 for 34 molecules.

The experiment has as its target ROCK2 (human) (UniProt O75116). The experiment can be described thus: Inhibition of ROCK2 Kinase Activity.

ROCK2 (human), sequence (O75116 whole entry, looked up): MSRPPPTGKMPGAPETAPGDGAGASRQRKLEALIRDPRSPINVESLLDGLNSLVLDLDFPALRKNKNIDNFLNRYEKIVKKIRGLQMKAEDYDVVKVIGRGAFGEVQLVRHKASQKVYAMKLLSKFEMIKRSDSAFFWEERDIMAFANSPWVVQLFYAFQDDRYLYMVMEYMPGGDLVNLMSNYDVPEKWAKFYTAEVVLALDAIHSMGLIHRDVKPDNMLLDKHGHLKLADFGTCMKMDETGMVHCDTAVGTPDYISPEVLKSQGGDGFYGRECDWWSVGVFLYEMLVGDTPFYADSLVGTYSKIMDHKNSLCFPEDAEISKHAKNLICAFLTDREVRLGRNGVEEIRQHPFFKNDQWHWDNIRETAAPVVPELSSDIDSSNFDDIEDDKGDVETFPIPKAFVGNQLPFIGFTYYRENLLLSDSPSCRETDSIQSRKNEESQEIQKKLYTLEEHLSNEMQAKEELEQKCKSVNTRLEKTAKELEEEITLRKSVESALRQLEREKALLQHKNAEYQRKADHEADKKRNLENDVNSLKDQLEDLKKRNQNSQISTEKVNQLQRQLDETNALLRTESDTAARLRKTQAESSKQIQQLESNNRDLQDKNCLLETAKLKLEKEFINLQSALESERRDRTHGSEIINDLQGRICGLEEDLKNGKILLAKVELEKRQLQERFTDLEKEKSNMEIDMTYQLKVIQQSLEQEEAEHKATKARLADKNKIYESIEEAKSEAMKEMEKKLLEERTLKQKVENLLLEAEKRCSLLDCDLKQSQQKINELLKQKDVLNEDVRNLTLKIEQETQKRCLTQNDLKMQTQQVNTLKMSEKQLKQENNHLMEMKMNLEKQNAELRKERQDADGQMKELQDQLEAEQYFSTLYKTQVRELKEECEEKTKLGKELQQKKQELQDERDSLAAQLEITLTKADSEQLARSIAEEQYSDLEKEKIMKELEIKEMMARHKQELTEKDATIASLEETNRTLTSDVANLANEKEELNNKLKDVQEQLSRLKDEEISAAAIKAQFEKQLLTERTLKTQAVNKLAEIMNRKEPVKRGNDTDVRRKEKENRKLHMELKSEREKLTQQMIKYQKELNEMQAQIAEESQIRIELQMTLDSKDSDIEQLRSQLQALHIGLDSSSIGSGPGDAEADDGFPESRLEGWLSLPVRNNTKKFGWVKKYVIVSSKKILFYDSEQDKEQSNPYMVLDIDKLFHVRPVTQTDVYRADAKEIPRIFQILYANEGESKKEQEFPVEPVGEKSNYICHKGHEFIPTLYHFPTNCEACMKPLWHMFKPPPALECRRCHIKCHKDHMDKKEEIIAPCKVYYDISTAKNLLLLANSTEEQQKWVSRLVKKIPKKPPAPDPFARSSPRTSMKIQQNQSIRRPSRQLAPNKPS

The term IC50 denotes the concentration at which inhibition is half-maximal. Lower therefore signals greater potency in that assay. Consider `NCCC(=O)N1CC(C(=O)Nc2nc3ccc(-c4cn[nH]c4)cc3s2)CC1c1ccccc1` (centres undefined), for which the IC50 came to 29 nM. This counts as double-digit nanomolar.

In turn, `COc1cccc(C(=O)Nc2nc3ccc(-c4ccncc4)cc3s2)c1` yielded an IC50 of 1930 nM.

Molecule `COc1cccc(OCc2nc3ccc(-c4cn[nH]c4)cc3s2)c1` returned an IC50 of 42 nM.

The molecule `CN(C)CCN(Cc1ccccc1)C(=O)c1nc2ccc(-c3cn[nH]c3)cc2s1` yielded a 50% inhibitory concentration (IC50) of 2 nM.

Molecule `NCC(=O)N1C[C@H](C(=O)Nc2nc3ccc(-c4cn[nH]c4)cc3s2)[C@@H](c2ccccc2)C1` gave a half-inhibitory concentration (IC50) of 37 nM.

Turning to `COc1cccc(CN(CCCN(C)C)C(=O)c2nc3ccc(-c4cn[nH]c4)cc3s2)c1`, the half-maximal inhibitory concentration (IC50) is 4.3 nM.

For the molecule `Nc1nccc(-c2ccc3nc(C4COc5ccccc5O4)oc3c2)n1` (centres undefined), the concentration for half-maximal inhibition (IC50) worked out at 21 nM.

Consider `COc1ccc2c(c1)CC(c1nc3cc(-c4ccnc(N)n4)ccc3o1)CO2` (centres undefined), for which the IC50 came to 933 nM.

On to `COc1ccc2c(c1)CC(c1nc3ccc(-c4cn[nH]c4)cc3o1)CO2` (centres undefined), for which the 50% inhibitory concentration (IC50) was 1.5 nM. Compared with the last molecule, the IC50 is about 620-fold lower.

Take `COc1cccc(CN(CCN(C)C)C(=O)Nc2nc3ccc(-c4cn[nH]c4)cc3s2)c1`: the half-inhibitory concentration (IC50) is 8 nM.

The molecule `c1ccc2c(c1)OCC(c1nc3ccc(-c4cn[nH]c4)cc3s1)O2` (centres undefined) gave an IC50 of 17 nM.

`O=C(Nc1nc2ccc(-c3cn[nH]c3)cc2s1)C1COc2ccccc2C1` (centres undefined) yielded an IC50 of 14 nM.

Regarding `COc1cccc(CN(CCO)C(=O)c2nc3ccc(-c4cn[nH]c4)cc3s2)c1`, the IC50 was determined as 7 nM.

Turning to `Nc1cc(-c2ccc3nc(C4COc5ccccc5C4)oc3c2)ccn1` (centres undefined), the IC50 came out at 36 nM.

With `COc1ccc2c(c1)CC(c1nc3ccc(-c4ccnc(N)c4)cc3o1)CO2` (centres undefined), the half-maximal inhibitory concentration (IC50) was 8 nM.

In turn, `COc1cccc(CN(CCN2CCCC2)C(=O)c2nc3ccc(-c4cn[nH]c4)cc3s2)c1` showed a half-inhibitory concentration (IC50) of 43 nM.

`COc1ccc2c(c1)CC(c1nc3cc(-c4cn[nH]c4)ccc3o1)CO2` (centres undefined) yielded an IC50 of 219 nM. Against the preceding molecule, the IC50 is about 5.1-fold higher.

The molecule `CN(C)CCNC(=O)c1cccc(CN(C(=O)c2nc3ccc(-c4cn[nH]c4)cc3s2)C2CC2)c1` gave an IC50 of 35 nM.

`COc1ccc2c(c1)CC(c1nc3ccc(-c4ccncc4)cc3o1)CO2` (centres undefined) returned an IC50 of 6 nM.

In turn, `COc1cccc(CNC(=O)c2nc3ccc(-c4cn[nH]c4)cc3s2)c1` showed a 50% inhibitory concentration (IC50) of 21 nM.

For the molecule `Fc1ccc2c(c1)CC(c1nc3ccc(-c4cn[nH]c4)cc3o1)CO2` (centres undefined), the half-inhibitory concentration (IC50) turned out to be 30 nM.

On to `CN(C)CCCNC(=O)c1ccc2c(c1)CC(c1nc3ccc(-c4cn[nH]c4)cc3s1)CO2` (centres undefined), for which the IC50 turned out to be 0.87 nM.

In turn, `COc1ccc(CNc2nc3ccc(-c4ccncc4)cc3s2)cc1` returned an IC50 of 5000 nM.

`CN(C)CCN(Cc1cccc(F)c1)C(=O)c1nc2ccc(-c3cn[nH]c3)cc2s1` came in with a concentration for half-maximal inhibition (IC50) of 1 nM.

For `Cc1n[nH]cc1-c1ccc2nc(C3COc4ccc(F)cc4C3)oc2c1` (centres undefined), the IC50 was found to be 9 nM.

On to `COc1ccc2c(c1)CC(c1nc3cc(-c4ccnc5[nH]ccc45)ccc3o1)CO2` (centres undefined), for which the IC50 was 518 nM.

For the molecule `Nc1nccc(-c2ccc3nc(C4COc5ccc(F)cc5C4)sc3c2)n1` (centres undefined), the IC50 turned out to be 23 nM.

`c1ccc(CCc2nc3ccc(-c4cn[nH]c4)cc3s2)cc1` showed an IC50 of 40 nM. This IC50 is about 1.7-fold higher than that of the molecule before.

On to `Nc1cc(-c2ccc3nc(C4COc5ccc(F)cc5C4)oc3c2)ccn1` (centres undefined), for which the IC50 stood at 18 nM.

`COc1ccc2c(c1)CC(c1nc3cc(-c4ccncc4)cnc3s1)CO2` (centres undefined) showed a half-inhibitory concentration (IC50) of 579 nM.

In the case of `c1ccc(OCc2nc3ccc(-c4cn[nH]c4)cc3s2)cc1`, the half-inhibitory concentration (IC50) was 44 nM. This IC50 lies about 13-fold lower than the previous one.

Molecule `COc1ccc2c(c1)CC(c1nc3ccc(-c4c[nH]nc4C)cc3o1)CO2` (centres undefined) gave an IC50 of 16 nM.

As to `O=C(Nc1nc2ccc(-c3cn[nH]c3)cc2s1)C1COc2ccc(F)cc2C1` (centres undefined), the IC50 stood at 22 nM.

As for `O=C(Nc1nc2ccc(-c3cn[nH]c3)cc2s1)[C@H]1CNC[C@@H]1c1ccccc1`, the IC50 is 50 nM.
